Target: T1, human α4β2 subtype of nicotinic acetylcholine receptors (Homo sapiens, UniProt P17787+P43681)
T1 construct: expressed in transfected cells; host or cells: Xenopus laevis oocytes injected with hnACh-R α4 and β2 cRNA (pSP64 polyA vector)
Assay type: cell-based
Conditions: response at 100 μM test compound, in comparison with response at 10 μM acetylcholine (100%); oocytes held at −50 mV
Experimental: The agonist effect in human α4β2 subtype of nicotinic acetylcholine receptors are examined by using human nicotinic acetylcholine receptors prepared in oocytes of Xenopus laevis, which is injected with cRNA from the corresponding cloning cDNA of human α4 and β2 subunits of nicotinic acetylcholine receptors, and to measure the expression of the electric response by adding the test compounds to perfusion solution by means of membrane potential holding method.
Agonist Activities at Human α4β2 Subtype of Nicotinic Acetylcholine Receptors
The agonist activities of the compounds of the present invention at human α4β2 subtype of nicotinic acetylcholine receptors was evaluated by the following method, which was modified method described by Papke R. L., Thinschmidt J. S., Moulton B. A., Meyer E. M. & Poirier A., Br. J. Pharmacol., 120, 429-438 (1997).
(1) Preparation of cRNA of Human α4β2 Subtype of Nicotinic Acetylcholine Receptors
The cloning of human nicotinic acetylcholine receptor (hnACh-R) α4 cDNA and hnAC-R β2 cDNA were performed, in accordance with the conventional manners, by synthesizing the each DNA primers corresponding to the sequences of hnACh-R α4 cDNA and hnACh-R β2 cDNA [Monteggia L. M. et al., Gene, 155, 189-193 (1995); and Anand R., & Lindstrom J., Nucl. Acids Res., 18, 4272 (1990)], and obtained hnACh-R α4 cDNA and hnACh-R β2 cDNA by polymerase chain reaction (PCR), respectively. The obtained hnACh-R α4 cDNA and hnACh-R β2 cDNA were inserted to the cRNA expression vector (pSP64 polyA) having SP6 RNA promoter to construct hnACh-R α4/pSP64 polyA and hnACh-R β2/pSP64 polyA, respectively. After cutting from expression vector by restriction enzyme (EcoRI), transcription was performed by affecting SP6 RNA polymerase in the presence of cap analogues to obtain hnACh-R α4 cRNA and hnACh-R β2 cRNA, respectively.
(2) Expression of Human α4β2 Subtype Nicotinic Acetylcholine Receptors in Xenopus Oocytes
Oocytes were purchased from Kitanihonseibustukyohzai Co., Ltd., which were already enucleated from Xenopus laevis, and used in this experiment.
The oocytes were treated with collagenase (Sigma type I; 1 mg/ml) in calcium-free modified Birth's solution (88 mM of NaCl, 1 mM of KCl, 2.4 mM of NaHCO3, 0.82 mM of MgSO4, 15 mM of HEPES, pH 7.6) under gently stirring at the room temperature for 90 minutes, and washed out the enzyme from the tissue. Then, oocytes were separated from ovarian follicle by tweezers, and isolated oocytes were placed in antibiotics containing modified Birth's solution (88 mM of NaCl, 1 mM of KCl, 2.4 mM of NaHCO3, 0.82 mM of MgSO4, 15 mM of HEPES, pH 7.6, and 0.1 v/v % of mixture solution containing of penicillin and streptomycin for incubation; Sigma Co.). Thus treated oocytes were injected with 50 nl of adjusted cRNAs (1.0 mg/ml), that is, each 50 ng of hnACh-R α4 cRNA and hnACh-R β2 cRNA per 1 oocyte by using automatic injector (NANOJECT; DRUMMOND […] CO.), and further incubated for 4-14 days at 19° C. In oocytes, heterogeneous quintuple [(α4)2(β2)3] was composed by translation of injected cRNAs, and ion channel receptors were constructed on cell membrane.
(3) Agonist Activities at Human α4β2 Subtype of Nicotinic Acetylcholine Receptors
The recordings of responses at human α4β2 subtype of nicotinic acetylcholine receptors by means of membrane potential holding method were performed as follow. […] Test compounds were added to the perfusion solution, and recorded the peak strength of induced inward electric current. […]

T1 sequence (P43681 29-627 limits assumed): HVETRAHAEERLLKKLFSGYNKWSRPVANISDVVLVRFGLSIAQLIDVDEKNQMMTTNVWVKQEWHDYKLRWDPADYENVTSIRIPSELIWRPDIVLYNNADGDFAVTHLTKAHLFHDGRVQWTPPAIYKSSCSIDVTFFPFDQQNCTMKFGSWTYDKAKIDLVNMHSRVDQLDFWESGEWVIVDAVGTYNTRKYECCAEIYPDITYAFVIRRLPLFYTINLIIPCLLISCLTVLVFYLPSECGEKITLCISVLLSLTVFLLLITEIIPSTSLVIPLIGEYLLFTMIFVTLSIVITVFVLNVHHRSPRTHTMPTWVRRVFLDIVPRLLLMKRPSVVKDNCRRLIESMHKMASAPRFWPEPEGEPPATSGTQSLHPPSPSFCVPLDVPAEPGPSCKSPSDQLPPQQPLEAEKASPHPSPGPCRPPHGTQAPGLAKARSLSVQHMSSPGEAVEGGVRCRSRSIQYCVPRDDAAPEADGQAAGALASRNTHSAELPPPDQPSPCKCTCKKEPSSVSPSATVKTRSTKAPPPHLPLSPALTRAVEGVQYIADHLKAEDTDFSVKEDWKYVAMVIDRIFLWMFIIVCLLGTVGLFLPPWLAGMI
T1 sequence (P17787 26-502): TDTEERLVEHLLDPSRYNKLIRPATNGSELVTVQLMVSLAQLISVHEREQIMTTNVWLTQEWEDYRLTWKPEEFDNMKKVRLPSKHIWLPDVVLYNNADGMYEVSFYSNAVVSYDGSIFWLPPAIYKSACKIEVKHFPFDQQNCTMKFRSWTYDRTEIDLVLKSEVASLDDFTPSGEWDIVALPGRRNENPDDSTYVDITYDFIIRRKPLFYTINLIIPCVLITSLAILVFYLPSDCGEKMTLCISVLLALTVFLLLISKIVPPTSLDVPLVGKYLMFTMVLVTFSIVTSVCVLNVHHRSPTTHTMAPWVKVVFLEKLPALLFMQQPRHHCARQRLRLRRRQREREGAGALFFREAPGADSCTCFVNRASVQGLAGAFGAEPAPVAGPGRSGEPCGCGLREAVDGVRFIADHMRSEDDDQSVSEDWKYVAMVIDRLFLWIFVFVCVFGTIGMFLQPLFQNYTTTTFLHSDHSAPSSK

SMILES | Agonist effect [%]
Clc1ccc(C/N=C2\SCCN2Cc2ccc(Cl)nc2)cn1 [Compound 1, 3-(6-chloro-3-pyridyl)methyl-2-[(6-chloro-3-pyridyl)methyl]iminothiazolidine] | 6
Cn1ccn(Cc2ccc(Cl)nc2)c1=N [Compound 13, 1-(6-chloro-3-pyridyl)methyl-2-imino-3-methyl-2,3-dihydroimidazole] | 5
Clc1ccc(C/N=C2\OCCCN2Cc2ccc(Cl)nc2)cn1 [Compound 2, 3-(6-chloro-3-pyridyl)methyl-2-[(6-chloro-3-pyridyl)-methyl]imino-3,4,5,6-tetrahydro-2H-1,3-oxazine] | 27
Clc1ccc(C/N=c2\sccn2Cc2ccc(Cl)nc2)cn1 [Compound 8, 3-(6-chloro-3-pyridyl)methyl-2-[(6-chloro-3-pyridyl)methyl]imino-2,3-dihydrothiazole] | 11

Reference: patent US6900202B2, “Di-substituted imineheterocyclic compounds” (priority 2000, dated 2005)
